Results published in patent US12616204B2, “Use of cationic porphyrins as selective herbicide” (UNIVERSITE DE LIMOGES, priority 2021, dated 2026).
“Also recorded” adds a separate entry of the source.

Columns and labels:
[1] = system: Tomato Solanum lycopersicum var Marmande; test: In vitro cultivation on Zn-TMPyP-rich medium, tomato; type: in vivo; settings: 3.5 μM Zn-TMPyP-rich medium, after 22 days, compared with control
Description: (§1) The sterilization of the seeds is carried out according to the following protocol. Surface sterilization is first performed with 70% (v/v) ethanol for 2 minutes at ambient temperature. The ethanol is removed and the seeds are immersed in 20% (v/v) sodium hypochlorite for 15-20 minutes and then thoroughly rinsed with sterile water. The barley caryopses are left in the water for at least one hour before cultivation.
(§2) The germination medium for all of the seeds is Gamborg's synthetic medium, also referred to as B5, (Duchefa Biochemie, Haarlem, the Netherlands), supplemented with 2% sucrose (w/v) and solidified with 0.8% agar (Difco, Dallas, USA). The pH is adjusted to 5.8 with 1 M sodium hydroxide before autoclaving. After autoclaving (120° C., 20 minutes, 1 bar) and cooling of the medium in Petri dishes and/or jars, porphyrin is added at the desired concentration. After sterilization, the seeds are deposited on the solidified B5 medium containing or not containing the porphyrin, under a laminar flow hood. The Petri dishes and jars are placed in culture chambers (16 h photoperiod, 22° C., photon flux density ˜100 μmol·m^−2·s^−1 generated by cool daylight lamps (OSRAM Lumilux 24W)). The jars are used for the transfer of the seedlings and allow them to grow more appropriately. […]

[2] = system: Tomato Solanum lycopersicum var Marmande; test: Greenhouse foliar spraying test, tomato; settings: foliar spraying 50 μM Zn-TMPyP, two treatments 48 h apart, after one month and two months
Description: (§6) The various seeds are cultivated in a greenhouse in commercial compost (universal compost, Fertiligene). The seeds were sown in the greenhouse under controlled temperature and humidity conditions (the temperature varies between 15° C. and 30° C. depending on the season, and the relative humidity varies from 50 to 70%).
(§7) Two spot treatments (about 10 sprays each) spaced 48 h apart were carried out one week after germination. The first treatment was carried out when the seedlings were in the cotyledon stage, the second when the seedlings were in the first-leaf stage.
(§8) The seedlings were monitored every 48 h. The control medium was sprayed with water at the same frequency.

[3] = system: Tobacco (Nicotiana benthamiana); test: In vitro cultivation on Zn-TMPyP-rich medium, tobacco; type: in vivo; settings: 3.5 μM Zn-TMPyP-rich medium, one-and-a-half months of cultivation
Description: as §1
(§3) The germination medium for all of the seeds is Gamborg's synthetic medium, also referred to as B5, (Duchefa Biochemie, Haarlem, the Netherlands), supplemented with 2% sucrose (w/v) and solidified with 0.8% agar (Difco, Dallas, USA). The pH is adjusted to 5.8 with 1 M sodium hydroxide before autoclaving. After autoclaving (120° C., 20 minutes, 1 bar) and cooling of the medium in Petri dishes and/or jars, porphyrin is added at the desired concentration. After sterilization, the seeds are deposited on the solidified B5 medium containing or not containing the porphyrin, under a laminar flow hood. The Petri dishes and jars are placed in culture chambers (16 h photoperiod, 22° C., photon flux density ˜100 μmol·m^−2·s^−1 generated by cool daylight lamps (OSRAM Lumilux 24W)). The jars are used for the transfer of the seedlings and allow them to grow more appropriately.

[4] = system: Spinach (Spinacia oleracea); test: Example 4 greenhouse foliar spraying test, spinach; type: in vivo; settings: 5 foliar sprayings 48 h apart, 50, 75, 100 μM, after 6 weeks
Description: (§4) Additional tests in a greenhouse were carried out. […] The treatments started at the cotyledon stage. The harvesting was carried out 6 weeks after germination (and 10 weeks for barley).

[5] = system: antioxidant enzymes and molecules (total thiols, catalase, guaiacol peroxidase) of tomato seedlings; test: Total thiols, catalase and guaiacol peroxidase in greenhouse tomato seedlings after foliar application; settings: foliar application of 50 μM Zn-TMPyP, two months
Description: Seedlings (roots and aerial parts separated before freezing) are ground in liquid nitrogen. The powder is transferred into an Eppendorf tube and weighed (between 200 and 100 mg per extraction). The extract is acidified with 0.2 N vortexed HCl and centrifuged (13 000 g 10 min 4° C.). 500 μL of the supernatant is neutralized with 400 μL of NaOH (0.2 N) and 50 μL of Na2HPO4. Then, 700 μL of 0.12 M Na2HPO4, 6 mM EDTA and 6 mM DTNB are added to 200 μL of the neutralized solution. After establishing a glutathione range, the total thiols contained in the samples are determined by UV-vis spectrometry at 412 nm and related to the fresh weight.
Seedlings (roots and aerial parts separated before freezing) are ground in liquid nitrogen. […]
Catalase activity is quantifiable by measuring the disappearance of H2O2 by disproportionation into H2O and O2. […] The kinetics of the disappearance of H2O2 are measured for 200 seconds every 20 seconds at 240 nm. The activity is calculated using the molar extinction coefficient of H2O2 which is 43.6 mM^−1·cm^−1.
Its activity is measured by the oxidation of guaiacol in the presence of H2O2. […] The kinetics of the appearance of the oxidized guaiacol are measured for 120 seconds every 10 seconds at 436 nm. The activity is calculated using the molar extinction coefficient of H2O2 which is 25.5 mM^−1·cm^−1.

[6] = Photostability/photodegradation test in water (Soret band, UV-visible spectrometry); settings: solution without surfactant, photoperiod 16 h light/8 h dark
Description: Monitoring the intensity of the Soret band as a function of the irradiation time makes it possible to calculate the percentage of degraded porphyrins.

[7] = system: Grapevine (Vitis vinifera) cultivar: Sauvignon (clone 379); test: In vitro cultivation on Zn-TMPyP-rich medium, grapevine explants; type: in vivo; settings: 3.5 μM Zn-TMPyP-rich medium, two months of cultivation
Description: (§5) Explants are propagated in a sterile manner from 1-month old seedlings for potato and two-month old seedlings for grapevines. The potato explants are propagated on a Murashige and Skoog synthetic medium supplemented with 2% sucrose and myo-inositol ((100 mg/L), pH 5.8. The grapevine explants are cultivated on ½ Chee and Pool medium supplemented with 2% sucrose, pH 5.9. The media are solidified with 0.8% Sobigel. Both media are supplied by Duchefa Biochemie, Haarlem, the Netherlands. The media are autoclaved as described above for the B5 medium. The grapevine explants are placed in a culture chamber at 25° C. and those of potato at 23° C., the same photoperiod and light intensity as for the seed germinations.

[8] = system: Millet Echinochloa frumentacea; test: Greenhouse foliar spraying test, millet; settings: foliar spraying 50 μM Zn-TMPyP, two treatments 48 h apart, after one month and two months
Description: as §6, §7, §8

[9] = system: Potato (Solanum tuberosum) cultivar: Coquine; test: In vitro cultivation on Zn-TMPyP-treated medium, potato explants; type: in vivo; settings: treated medium (3.5 μM Zn-TMPyP) compared to control
Description: as §5

[10] = system: plants of interest (tomato, barley, wheat, spinach, turnip, corn, onion, sunflower); test: Example 4 greenhouse foliar spraying test, plants of interest; type: in vivo; settings: 5 foliar sprayings 48 h apart, regardless of concentration (50, 75, 100 μM), after 6 weeks (10 for barley)
Description: as §4

Poppy (Papaver rhoeas) [11] = test: In vitro cultivation on Zn-TMPyP-treated medium, poppy; type: in vivo; settings: 3.5 μM Zn-TMPyP, after 6 weeks
Description: as §1, §3

[12] = system: tomato seedlings (Solanum lycopersicum); settings: 16-hour photoperiod, Guillaumot et al. 2016; cited from earlier work
Poppy (Papaver rhoeas) [13] = test: Greenhouse foliar spraying test, poppy; settings: foliar spraying 50 μM Zn-TMPyP
Description: as §6, §7, §8

Barley (Hordeum sativum) [14] = test: Greenhouse foliar spraying test, barley; settings: foliar spraying 50 μM Zn-TMPyP, two treatments 48 h apart, after one month and two months
Description: as §6, §7, §8

[15] = system: antioxidant machinery (total thiols, catalase, guaiacol peroxidase) of tomato seedlings; test: Total thiols, catalase and guaiacol peroxidase in tomato seedlings cultivated in vitro; type: in vivo, Solanum lycopersicum; settings: tomato seedlings cultivated in vitro on 3.5 μM Zn-TMPyP-rich medium, 1 month
fishing worms (maggots) = test: Non-toxicity to fishing worms (maggots), viability after spraying; type: in vivo; settings: for toxicity to fishing worms (maggots): summary statement
Description: The maggots were placed in Petri dishes under a photoperiod (16 h) or under dark conditions in a phytotron (24° C.) for 24 h. […] The percentage viability was determined after 24 h.

Barley (Hordeum sativum) [16] = test: In vitro cultivation on Zn-TMPyP-rich medium, barley; type: in vivo; settings: 3.5 μM Zn-TMPyP-rich medium
Description: as §1, §2

[17] = system: Arabidopsis thaliana ws ecotype; test: In vitro cultivation on Zn-TMPyP-treated medium, Arabidopsis; type: in vivo; settings: medium with Zn-TMPyP 3.5 μM, after 1 month
Description: as §1, §3

[18] = system: Common nettle Urtica dioica; test: In vitro cultivation on Zn-TMPyP-treated medium, nettle; type: in vivo; settings: medium with Zn-TMPyP 3.5 μM, after 18 days
Description: as §1, §3

[19] = system: adventitious plants (goosefoot, proso millet, rye-grass, dock, black nightshade, dandelion, chickweed); test: Example 4 greenhouse foliar spraying test, adventitious plants; type: in vivo; settings: after 6 weeks
Description: as §4

zinc tetra(N-methylpyridyl)porphyrin tetrachloride [Zn-TMPyP]
development of tomato [1]: significantly inhibited | growth of tomato (plant of interest) [2]: grow perfectly | development of tobacco seedlings [3]: considerable inhibition | growth of spinach [4]: slightly affected | antioxidant enzymes and molecules [5]: remain constant | thiols in the roots [5]: increase | days of photoperiod after which the solution disappears [6]: 29 days | development of grapevine seedlings [7]: considerable inhibition | herbicidal effect on millet [8]: completely dead | growth of potato at the stem and roots [9]: slight growth retardation | growth of the plants of interest [10]: grow perfectly | response of poppy seedlings (Poppy (Papaver rhoeas) [11]): remarkable adverse impact and inhibition | tomato seedling growth in vitro [12]: significantly altered | time to first symptoms after the first treatment (Poppy (Papaver rhoeas) [13]; adventitious plants (poppy, millet)): 24 h | time until the poppy is destroyed after the first treatment (Poppy (Papaver rhoeas) [13]; first 10 sprayings): 48 h | herbicidal effect on poppy (Poppy (Papaver rhoeas) [13]; two treatments 48 h apart, after one month and two months): completely dead; also recorded: completely destroyed | growth of barley (plant of interest) (Barley (Hordeum sativum) [14]): grow perfectly | antioxidant machinery (total thiols, catalase, guaiacol peroxidase) [15]: significantly inhibited | effect on viability of maggots (fishing worms) (fishing worms (maggots); spraying of 50 μM Zn-TMPyP, 24 h, in the presence and in the absence of light): harmlessness | toxicity to fishing worms (maggots) (fishing worms (maggots)): non-toxicity | appearance of barley leaves (Barley (Hordeum sativum) [16]): yellowing followed by wilting | growth of the barley (Barley (Hordeum sativum) [16]; after one month of cultivation): adversely impacted | growth of Arabidopsis [17]: very significant inhibition | growth of nettle [18]: very significant inhibition | growth of the adventitious plants ([19]; 5 foliar sprayings 48 h apart, C1=50, C2=75, C3=100 μM, dose-dependent or at a specific dose): drastically adversely impacts | destruction of the adventitious plants ([19]; 5 foliar sprayings, certain concentrations (of 50, 75, 100 μM)): completely destroy

tetra(N-methylpyridyl)porphyrin tetrachloride [TMPyP]
tomato seedling growth in vitro [12]: significantly altered | toxicity to fishing worms (maggots) (fishing worms (maggots)): non-toxicity
